According to patent US9890147B2 (BAYER PHARMA AKTIENGESELLSCHAFT, priority 2012, dated 2018):

Legend:
[1] = target: T1, BRD4 (BD1) (Homo sapiens, UniProt O60885); experiment: Binding assay BRD4/acetylated peptide H4 (TR-FRET protein-protein interaction assay)
T1 construct: with relatively long constructs also being possible, preferably amino acids 44-168; made in house; host or cells: E. coli
In short: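 Displacement of biotin-Ac-H4 peptide from His6-tagged BRD4(BD1), final usually 10 nM, read as Eu-streptavidin to anti-His-XL665 TR-FRET (665/620 nm). Compounds tested at 11 doses up to 20 μM in duplicate, pH 7.5 HEPES, 22 °C then 4 °C incubation; IC50 by 4-parameter regression.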

[2] = system: MOLM-13 cells; experiment: Cell proliferation assay (alamarBlue), MOLM-13; assay type: cell-based; settings: Homo sapiens, 96 hours incubation, inhibition of cell proliferation
In short: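 IC50 = concentration giving 50% growth inhibition relative to buffer-treated cells, after subtracting baseline fluorescence taken before dosing. Compound applied at 1E-5 to 1E-8 M for 96 h at 37 °C in RPMI1640 with 10% FCS; alamarBlue signal at 530/590 nm.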

[3] = system: MV4-11 cells; experiment: Cell proliferation assay (alamarBlue), MV4-11; assay type: cell-based; settings: Homo sapiens, 72 hours incubation, inhibition of cell proliferation
Description: (§1) In accordance with the invention, the capability of the substances to inhibit cell proliferation was determined Cell viability was determined using the alamarBlue® reagent (Invitrogen) in a Victor X3 Multilabel Reader (Perkin Elmer). The excitation wavelength was 530 nm and the emission wavelenth […].
The MV4-11 cells (ATCC, CRL 9591) were sown at a concentration of 5000 cells/well in 100 μl growth medium (RPMI1640, 10% FCS) on 96-well microtitre plates.
(§2) After an overnight incubation at 37° C., the fluorescence values (CI values) were determined. The plates were then treated with various substance dilutions (1E-5 M, 3E-6 M, 1E-6M, 3E-7 M, 1E-7 M, 3E-8 M, 1E-8 M) and incubated at 37° C. for 72 (MV4-11-, LOX-IMVI cells), 96 (MOLM-13-, B16F10-, MDA-MB-431-, Caov-3 cells), 120 (MOLP-8-, KMS-12-PE cells) or 168 (LAPC-4 cells) hours. The fluorescence values (CO values) were then determined. For the data analysis, the CI values were subtracted from the CO values and the results were compared between cells treated with different dilutions of the substance or with buffer solution only. These were used to calculate the IC 50 values (substance concentration required for 50% inhibition of cell proliferation).

[4] = system: LOX-IMVI cells; experiment: Cell proliferation assay (alamarBlue), LOX-IMVI; assay type: cell-based; settings: Homo sapiens, 72 hours incubation, inhibition of cell proliferation
Description: as §1
The LOX-IMVI cells (NCI-60) were sown at a concentration of 1000 cells/well in 100 μl growth medium (RPMI1640, 10% FCS) on 96-well microtitre plates.
as §2

[5] = system: MOLP-8 cells; experiment: Cell proliferation assay (alamarBlue), MOLP-8; assay type: cell-based; settings: Homo sapiens, 120 hours incubation, inhibition of cell proliferation
Description: as §1
The MOLP-8 cells (DSMZ, ACC 569) were sown at a concentration of 4000 cells/well in 100 μl growth medium (RPMI1640, 20% FCS) on 96-well microtitre plates.
as §2

[6] = system: KMS-12-PE cells; experiment: Cell proliferation assay (alamarBlue), KMS-12-PE; assay type: cell-based; settings: Homo sapiens, 120 hours incubation, inhibition of cell proliferation
Description: as §1
The KMS-12-PE cells (DSMZ, ACC 606) were sown at a concentration of 4000 cells/well in 100 μl growth medium (RPMI1640, 20% FCS) on 96-well microtitre plates.
as §2

[7] = system: Caov-3 cells; experiment: Cell proliferation assay (alamarBlue), Caov-3; assay type: cell-based; settings: Homo sapiens; inhibition of cell proliferation, Caov-3 (ovarian carcinoma), 96 hours
Description: as §1
The MDA-MB-231 cells (DSMZ, ACC 732) were sown at a concentration of 4000 cells/well in 100 μl growth medium (DMEM/Ham's F12 medium, 10% FCS) on 96-well microtitre plates. The Caov-3 cells (ATCC, HTB-75) were sown at a concentration of 2000 cells/well in 100 μl growth medium (MEM Earle's medium, 10% FCS) on 96-well microtitre plates.
as §2

[8] = system: B16F10 cells; experiment: Cell proliferation assay (alamarBlue), B16F10; assay type: cell-based; settings: Mus musculus, B16-F10, 96 hours incubation, inhibition of cell proliferation
Description: as §1
The B16F10 cells (ATCC, CRL-6475) were sown at a concentration of 300-500 cells/well in 100 μl growth medium (DMEM with phenol red, 10% FCS) on 96-well microtitre plates.
as §2

SMILES | IC50 [1] | IC50 [2] | IC50 [3] | IC50 [4] | IC50 [5] | IC50 [6] | IC50 [7] | IC50 [8]
CNC(=O)N1N=C(c2ccc(N3CCN(C(=O)C(F)(F)F)CC3)cc2)c2cc(OC)c(OC)cc2CC1C (racemic) [Example 133, (±)-7,8-dimethoxy-N,4-dimethyl-1-{4-[4-(trifluoroacetyl)piperazin-1-yl]phenyl}-4,5-dihydro-3H-2,3-benzodiazepine-3-carboxamide] | 50 nM | 180 nM | 80 nM | 170 nM | 70 nM | 80 nM | 180 nM | –
CNC(=O)N1N=C(c2ccc(N3CCN(S(C)(=O)=O)CC3)cc2)c2cc(OC)c(OC)cc2CC1C (racemic) [Example 135, (±)-7,8-dimethoxy-N,4-dimethyl-1-{4-[4-(methylsulphonyl)piperazin-1-yl]phenyl}-4,5-dihydro-3H-2,3-benzodiazepine-3-carboxamide] | 50 nM | 200 nM | 120 nM | 360 nM | 130 nM | 120 nM | 300 nM | –
CNC(=O)N1N=C(c2ccc(N3CCCCC3)cc2)c2cc(OC)c(OC)cc2CC1C (racemic) [Example 139, (±)-7,8-dimethoxy-N,4-dimethyl-1-[4-(piperidin-1-yl)phenyl]-4,5-dihydro-3H-2,3-benzodiazepine-3-carboxamide] | 40 nM | 210 nM | 130 nM | 380 nM | 130 nM | 110 nM | 310 nM | –
CNC(=O)N1N=C(c2ccc(-n3nc(-c4ccccc4)cc3C)cc2)c2cc(OC)c(OC)cc2CC1C (racemic) [Example 147, (±)-7,8-Dimethoxy-N,4-dimethyl-1-[4-(5-methyl-3-phenyl-1H-pyrazol-1-yl)phenyl]-4,5-dihydro-3H-2,3-benzodiazepine-3-carboxamide] | 30 nM | 70 nM | 50 nM | 180 nM | 80 nM | 60 nM | 180 nM | –
CNC(=O)N1N=C(c2ccc(-n3nc(-c4ccccc4)cc3C3CC3)cc2)c2cc(OC)c(OC)cc2CC1C (racemic) [Example 148, (±)-1-[4-(5-cyclopropyl-3-phenyl-1H-pyrazol-1-yl)phenyl]-7,8-dimethoxy-N,4-dimethyl-4,5-dihydro-3H-2,3-benzodiazepine-3-carboxamide] | 40 nM | 80 nM | 70 nM | 250 nM | 90 nM | 80 nM | 300 nM | –
CNC(=O)N1N=C(c2ccc(-c3c(C)noc3C)cc2)c2cc(Cl)c(OC)cc2CC1C (racemic) [Example 157, (±)-8-chloro-1-[4-(3,5-dimethylisoxazol-4-yl)-phenyl]-7-methoxy-N,4-dimethyl-4,5-dihydro-3H-2,3-benzodiazepine-3-carboxamide] | 210 nM | 90 nM | 190 nM | 580 nM | 120 nM | 240 nM | 420 nM | –
CNC(=O)N1N=C(c2ccc(N3CC(F)(F)C3)cc2)c2cc(OC)c(OC)cc2CC1C (racemic) [Example 181, (±)-1-[4-(3,3-difluoroazetidin-1-yl)phenyl]-7,8-dimethoxy-N,4-dimethyl-4,5-dihydro-3H-2,3-benzodiazepine-3-carboxamide] | 70 nM | 300 nM | – | – | – | – | – | 170 nM
CNC(=O)N1N=C(c2ccc(N3CC(O)C3)cc2)c2cc(OC)c(OC)cc2CC1C (racemic) [Example 184, (±)-1-[4-(3-hydroxyazetidin-1-yl)phenyl]-7,8-dimethoxy-N,4-dimethyl-4,5-dihydro-3H-2,3-benzodiazepine-3-carboxamide] | 60 nM | 300 nM | – | – | – | – | – | 130 nM
CNC(=O)N1N=C(c2ccc(N3CC(C)(O)C3)cc2)c2cc(OC)c(OC)cc2CC1C (racemic) [Example 185, (±)-1-[4-(3-hydroxy-3-methylazetidin-1-yl)phenyl]-7,8-dimethoxy-N,4-dimethyl-4,5-dihydro-3H-2,3-benzodiazepine-3-carboxamide] | 70 nM | 280 nM | – | – | – | – | – | 160 nM
CNC(=O)N1N=C(c2ccc(N3CCN(C(C)C)CC3)cc2)c2cc(OC)c(OC)cc2CC1C (racemic) [Example 186, (±)-1-[4-(4-Isopropylpiperazin-1-yl)phenyl]-7,8-dimethoxy-N,4-dimethyl-4,5-dihydro-3H-2,3-benzodiazepine-3-carboxamide] | 130 nM | 330 nM | – | – | – | – | – | 240 nM
CNC(=O)N1N=C(c2ccc(N3CCOC3=O)cc2)c2cc(OC)c(OC)cc2C[C@@H]1C [Example 34.1, (4S)-7,8-Dimethoxy-N,4-dimethyl-1-[4-(2-oxooxazolidin-3-yl)phenyl]-4,5-dihydro-3H-2,3-benzodiazepine-3-carboxamide] | 40 nM | 240 nM | 120 nM | 440 nM | 80 nM | 80 nM | 310 nM | –
CNC(=O)N1N=C(c2ccc(-c3c(C)nn(C)c3C)cc2)c2cc(OC)c(OC)cc2C[C@@H]1C [Example 51.2, (4S)-7,8-dimethoxy-N,4-dimethyl-1-[4-(1,3,5-trimethyl-1H-pyrazol-4-yl)phenyl]-4,5-dihydro-3H-2,3-benzodiazepine-3-carboxamide] | 30 nM | 110 nM | 50 nM | 170 nM | 50 nM | 40 nM | 130 nM | –
CNC(=O)N1N=C(c2ccc(N3CCC3)cc2)c2cc(OC)c(OC)cc2C[C@@H]1C [Example 128.2, (4S)-1-[4-(azetidin-1-yl)phenyl]-7,8-dimethoxy-N,4-dimethyl-4,5-dihydro-3H-2,3-benzodiazepine-3-carboxamide] | 20 nM | 150 nM | 70 nM | 190 nM | 50 nM | 50 nM | 160 nM | –
CNC(=O)N1N=C(c2ccc(-n3nc(-c4ccccc4)cc3C)cc2)c2cc(OC)c(OC)cc2C[C@@H]1C [Example 147.1, (4S)-7,8-dimethoxy-N,4-dimethyl-1-[4-(5-methyl-3-phenyl-1H-pyrazol-1-yl)phenyl]-4,5-dihydro-3H-2,3-benzodiazepine-3-carboxamide] | 30 nM | 60 nM | 20 nM | 510 nM | 20 nM | 30 nM | 80 nM | –
CNC(=O)N1N=C(c2ccc(-n3nc(-c4ccccc4)cc3C3CC3)cc2)c2cc(OC)c(OC)cc2C[C@@H]1C [Example 148.1, (4S)-1-[4-(5-cyclopropyl-3-phenyl-1H-pyrazol-1-yl)phenyl]-7,8-dimethoxy-N,4-dimethyl-4,5-dihydro-3H-2,3-benzodiazepine-3-carboxamide] | 30 nM | 80 nM | 50 nM | 90 nM | 50 nM | 50 nM | 130 nM | –
CNC(=O)N1N=C(c2ccc(-n3ccc(-c4ccc(F)cc4)n3)cc2)c2cc(OC)c(OC)cc2C[C@@H]1C [Example 150.1, (4S)-1-{4-[3-(4-fluorophenyl)-1H-pyrazol-1-yl]phenyl}-7,8-dimethoxy-N,4-dimethyl-4,5-dihydro-3H-2,3-benzodiazepine-3-carboxamide] | 110 nM | 230 nM | 130 nM | 340 nM | 230 nM | 180 nM | 340 nM | –
